Experiment [1] has as its system 661W or C6 cells. Briefly: MTT assay: protection against calcium-ionophore A23187. As to conditions: for viability at 0.1 µM: 100 nM compound; for viability at 1 µM: 1 μM compound; for viability at 0.5 µM: 500 nM compound; for viability at 0.0008 µM: 800 pM compound. Type of experiment: cell-based. As to the method:
The compound 3-(4,5-Dimethylthiazol-2-yl)-2,5-diphenyltetrazolium bromide (MTT) is a tetrazolium ion that is reduced to a blue formazan dye via several families of NAD(P)H-dependent oxidoreductases. Formation of the formazan dye from MTT or other related tetrazolium dyes are commonly used as a viability assay even though, in fact, the assay is a metabolic capacity assay.
In this assay, 661W or C6 cells were maintained in DMEM supplemented with 10% FBS. 100 μl, of 70,000 cells/mL cells were seeded into each well of 96 well plates using DMEM supplemented with 5% FBS. Cells were then allowed to grow to confluency for 48 hours. The compounds of the invention were added in 2 μL media and calcium-ionophore A23187 was then added in 1 μL for a final concentration of 1 μM and after 24 h, 20 uL of 2 μg/mL MTT were added to each well and the cells were incubated for another 4 h after which 100 μL of 1% SDS in 0.01 M aqueous HCl were added to each well and the plates were incubated overnight. Absorbance was measured at 640 and 570 nM (background correction). The 1 μM ionophore A23187 caused about 50% loss in MTT signal at 24 h. Protection was calculated as the increase in absorbance of treatment groups normalized to the vehicle control.

Experiment [2] has as its system 661W or C6 cells. The experiment in a line: XF FCCP-uncoupled oxygen consumption rate assay (IBMX treatment). Type of experiment: cell-based. As to conditions: for activity at 1 µM: 1 uM compound. As to the method: The XF FCCP-uncoupled oxygen consumption rate assay assesses mitochondrial capacity by measuring cellular respiration. It was shown that the maximum FCCP-uncoupled oxygen consumption rate (OCR) was a good estimate of maximal mitochondrial capacity (Beeson 2010) and that IBMX treatment of 661W or C6 cells for 24 h caused a loss in maximal uncoupled OCR (Perron 2013). Thus, cells were pretreated with the exemplified compounds for 1 h, added 600 μM IBMX and then measured the uncoupled rate after 24 h. The OCR measurements were performed using a Seahorse Bioscience XF instrument (Seahorse Bioscience, Billerica, Md.), as previously published (Perron 2013). O2 leakage through the plastic sides and bottom of the plate was accounted for using the AKOS algorithm in the XF software package. Cells were plated on 96- or 24-well custom plates designed for use in the XF and grown to confluency in DMEM+5% FBS (48 h). The medium was then replaced with DMEM+1% FBS for 24 h, along with any treatments.

Where [3] appears, read: 1 μM A23187, 24 h, read-out: MTT Protection (%, concentration).
[4] abbreviates: 1 h pretreatment, 600 μM IBMX, 24 h, read-out: XF FCCP OCR (% Ctrl, concentration).

In the case of `CCOC(=O)c1sc(-c2ccc(OC)cc2)nc1-c1ccccc1` [Example 5, Ethyl 2-(4-methoxyphenyl)-4-phenylthiazole-5-carboxylate], the viability at 0.1 µM with 661W or C6 cells [1] (setting [3]) came to 69%. Further, the activity at 1 µM in the experiment with 661W or C6 cells [2] (setting [4]) was determined as 82%. In the case of `O=C(Nc1ccccc1)c1sc(-c2ccccc2)nc1-c1ccccc1` [Example 3, N,2,4-Triphenylthiazole-5-carboxamide], the viability at 1 µM with 661W or C6 cells [1] (setting [3]) was found to be 47%. Besides, in the experiment with 661W or C6 cells [2] (setting [4]), the activity at 1 µM stood at 72%. Regarding `CC(C)Cn1c(=O)n(C)c(=O)c2[nH]cnc21` [IBMX, reference compound], the “decrease in the uncoupled rate” value in the experiment with 661W or C6 cells [2] (IBMX treatment alone (600 μM, 24 h)) was approximately 50%. In the case of `COCCN(C)C(=O)c1sc(-c2ccccc2)nc1-c1ccccc1` [Example 6, N-(2-methoxyethyl)-N-methyl-2,4-diphenylthiazole-5-carboxamide], the viability at 0.1 µM in the experiment with 661W or C6 cells [1] (setting [3]) amounted to 78.4%. In addition, the activity at 1 µM with 661W or C6 cells [2] (setting [4]) was found to be 81%. For the molecule `CCOC(=O)c1sc(-c2ccccc2)nc1-c1ccccn1` [Example 9, Ethyl 2-phenyl-4-(pyridin-2-yl)thiazole-5-carboxylate], the viability at 10 µM in the experiment on 661W or C6 cells [1] (10 μM compound, 1 μM A23187, 24 h, read-out: MTT Protection (%, concentration)) was 98%. Further, in the experiment on 661W or C6 cells [2] (10 uM compound, 1 h pretreatment, 600 μM IBMX, 24 h, read-out: XF FCCP OCR (% Ctrl, concentration)), the activity at 10 µM is 71%. Regarding `CCOC(=O)c1sc(-c2ccccc2)nc1-c1ccccc1` [Example 1, Ethyl 2,4-diphenylthiazole-5-carboxylate], in the experiment on 661W or C6 cells [1] (setting [3]), the viability at 0.1 µM was 48%. Besides, in the experiment on 661W or C6 cells [2] (setting [4]), the activity at 1 µM was determined as 71%. In the case of `CCOC(=O)c1sc(-c2ccccn2)nc1-c1ccccc1` [Example 7, Ethyl 4-phenyl-2-(pyridin-2-yl)thiazole-5-carboxylate], the viability at 1 µM in the experiment on 661W or C6 cells [1] (setting [3]) stood at 88%. Besides, in the experiment with 661W or C6 cells [2] (setting [4]), the activity at 1 µM is 75%. Turning to `O=C(Nc1ccc(F)cc1)c1sc(-c2ccccc2)nc1-c1ccccc1` [Example 4, N-(4-fluorophenyl)-2,4-diphenylthiazole-5-carboxamide], the viability at 0.1 µM in the experiment with 661W or C6 cells [1] (setting [3]) is 64.1%. Besides, the activity at 1 µM in the experiment with 661W or C6 cells [2] (setting [4]) amounted to 83%. Consider `O=C(O)c1sc(-c2ccccn2)nc1-c1ccccc1` [Example 11, 4-Phenyl-2-(pyridin-2-yl)thiazole-5-carboxylic acid], for which the viability at 0.5 µM in the experiment on 661W or C6 cells [1] (setting [3]) came out at 71.7%. In the experiment with 661W or C6 cells [2] (setting [4]), the activity at 1 µM came to 76%.

Take `O=C(Nc1ccccc1Nc1ccccc1)c1sc(-c2ccccn2)nc1-c1ccccc1` [Example 12, 4-Phenyl-N-(2-(phenylamino)phenyl)-2-(pyridin-2-yl)thiazole-5-carboxamide]: the viability at 0.0008 µM with 661W or C6 cells [1] (setting [3]) was determined as 57.2%. Further, in the experiment on 661W or C6 cells [2] (setting [4]), the activity at 1 µM was 71%. As for `COc1ccc(NC(=O)c2sc(-c3ccccc3)nc2-c2ccccc2)cc1` [Example 8, N-(4-methoxyphenyl)-2,4-diphenylthiazole-5-carboxamide], in the experiment on 661W or C6 cells [1] (setting [3]), the viability at 0.0008 µM was determined as 67.3%. Further, in the experiment on 661W or C6 cells [2] (setting [4]), the activity at 1 µM came to 73%. Take `CCOC(=O)c1sc(-c2ccncc2)nc1-c1ccccc1` [Example 10, Ethyl 4-phenyl-2-(pyridin-4-yl)thiazole-5-carboxylate]: the viability at 0.5 µM in the experiment on 661W or C6 cells [1] (setting [3]) was 88%. Besides, in the experiment on 661W or C6 cells [2] (setting [4]), the activity at 1 µM turned out to be 70%. Regarding `O=C(O)c1sc(-c2ccccc2)nc1-c1ccccc1` [Example 2, 2,4-Diphenylthiazole-5-carboxylic acid], the viability at 0.1 µM in the experiment on 661W or C6 cells [1] (setting [3]) turned out to be 40%. For the same molecule, the activity at 1 µM with 661W or C6 cells [2] (setting [4]) is 77%.

As for `CNc1ccc2oc(C[C@H]3O[C@@]4(CC[C@H]3C)O[C@H]([C@H](C)C(=O)c3ccc[nH]3)[C@H](C)C[C@H]4C)nc2c1C(=O)O` [Example A23187, reference compound], the “loss in MTT signal” value with 661W or C6 cells [1] (1 μM ionophore A23187 alone, at 24 h) is on record as “about 50%”.

These data come from patent US9850218B2, “Thiazole compounds, compositions and methods for treatment of degenerative diseases and disorders” (MUSC FOUNDATION FOR RESEARCH DEVELOPMENT, priority 2013, dated 2017).
